Series [1] deals with MDA-MB-231 human breast cancer cells. Description: cell viability assay (MTT). It is filed as cell-based. As to conditions: 24 h; for viability at 1 µg/mL: read-out: Validity (%) for sample concentrations (µg/mL) 1; for viability at 10 µg/mL: read-out: Validity (%) for sample concentrations (µg/mL) 10; for viability at 31.25 µg/mL: read-out: Validity (%) for sample concentrations (µg/mL) 31.25; for viability at 62.5 µg/mL: read-out: Validity (%) for sample concentrations (µg/mL) 62.5; for viability at 125 µg/mL: read-out: Validity (%) for sample concentrations (µg/mL) 125; for viability at 250 µg/mL: read-out: Validity (%) for sample concentrations (µg/mL) 250; for viability at 500 µg/mL: read-out: Validity (%) for sample concentrations (µg/mL) 500. The protocol: (§1) WI-38 normal lung fibroblast cells, A549 lung cancer cells, and MDA-MB-231 breast cancer cells were obtained from VACSERA—Cell Culture Unit, Cairo, Egypt. The cell lines were originally obtained from the American Tissue Culture Collection (ATCC). WI-38, A549, and MDA-MB-231 cell lines were cultured in RPMI-1640 medium supplemented with 10% inactivate fetal bovine serum (FBS) and 1% penicillin/streptomycin were bought (Gibco, Invitrogen, CA). WI-38, A549, and MDA-MB-231 cells were seeded into 96-well plates (at a density of 5000 cells/well). On the following day, cells were treated with different concentrations (0, 1, 10, 31.25, 62.5, 125, 250, 500 µg/mL) of 16 fluorene derivatives in fresh medium and incubated for another 24 h. Cell viability was then assessed using the MTT assay (Sigma Aldrich, St. Louis, MO, USA), and the absorbance was read at 570 nm using an ELISA microplate reader (Molecular Devices, Downingtown, PA, USA).

In series [2] the test system is WI-38 human normal fibroblast cells. Description: cell viability assay (MTT). The series is classed as cell-based. As to conditions: 24 h; for viability at 31.25 µg/mL: read-out: Validity (%) for sample concentrations (µg/mL) 31.25; for viability at 62.5 µg/mL: 62.50 µg/mL, read-out: Validity (%) for sample concentrations (µg/mL) 62.50; for viability at 125 µg/mL: read-out: Validity (%) for sample concentrations (µg/mL) 125; for viability at 250 µg/mL: read-out: Validity (%) for sample concentrations (µg/mL) 250; for viability at 500 µg/mL: read-out: Validity (%) for sample concentrations (µg/mL) 500. The protocol:
as §1

Series [3] relates to A549 human lung cancer cells. In words: cell viability assay (MTT). It is filed as cell-based. As to conditions: 24 h; for viability at 1 µg/mL: read-out: Validity (%) for sample concentrations (µg/mL) 1; for viability at 10 µg/mL: read-out: Validity (%) for sample concentrations (µg/mL) 10; for viability at 31.25 µg/mL: read-out: Validity (%) for sample concentrations (µg/mL) 31.25; for viability at 62.5 µg/mL: 62.50 µg/mL, read-out: Validity (%) for sample concentrations (µg/mL) 62.50; for viability at 125 µg/mL: read-out: Validity (%) for sample concentrations (µg/mL) 125; for viability at 250 µg/mL: read-out: Validity (%) for sample concentrations (µg/mL) 250; for viability at 500 µg/mL: read-out: Validity (%) for sample concentrations (µg/mL) 500; for viability at 1000 µg/mL: read-out: Validity (%) for sample concentrations (µg/mL) 1000. As for the experimental part: as §1, with “On the following day, cells were treated with different concentrations (0, 1, 10, 31.25, 62.5, 125, 250, 500 µg/mL) of 16 fluorene derivatives in fresh medium and incubated for another 24 h.” left out

Converted amounts (≈) assume the structure as drawn.

`CN(C)c1ccc(C2SCC(=O)N2c2nc(-c3cc(Cl)cc4c3-c3ccc(Cl)cc3C4)cs2)cc1` (stereo not drawn) [5e, 3-(4-(2,7-Dichloro-9H-fluoren-4-yl)thiazol-2-yl)-2-(4-(dimethylamino)phenyl)thiazolidin-4-one] returned a melting point of 94 to 96 °C. Further, in series [1], the viability at 1 µg/mL turned out to be 97.3%, the viability at 10 µg/mL was determined as 96.3%, the viability at 31.25 µg/mL came to 93.6% and the viability at 62.5 µg/mL worked out at 92.6%. In addition, in series [1], the viability at 125 µg/mL was 85.5%, the viability at 250 µg/mL came out at 75.9%, the viability at 500 µg/mL is 73.7% and the 50% inhibitory concentration (IC50) was more than 500 µg/mL. For the same compound, in series [2], the viability at 31.25 µg/mL worked out at 92.4%, the viability at 62.5 µg/mL is 85.7%, the viability at 125 µg/mL worked out at 74.4% and the viability at 250 µg/mL turned out to be 69.3%. For the same compound, in series [2], the viability at 500 µg/mL is 62.9% and the IC50 was more than 500 µg/mL. In addition, in series [3], the viability at 1 µg/mL was 93.4%, the viability at 10 µg/mL came out at 90.2%, the viability at 31.25 µg/mL came out at 85.6% and the viability at 62.5 µg/mL is 77.3%. For the same compound, in series [3], the viability at 125 µg/mL was determined as 72.2%, the viability at 250 µg/mL came out at 65.7%, the viability at 500 µg/mL is 62.2% and the viability at 1000 µg/mL came out at 48.9%. Moreover, half-maximal inhibition in series [3] (IC50) required 847 µg/mL (≈ 1570 µM).
In turn, `O=C1CSC(c2ccc([N+](=O)[O-])cc2)N1c1nc(-c2cc(Cl)cc3c2-c2ccc(Cl)cc2C3)cs1` (stereo not drawn) [5f, 3-(4-(2,7-Dichloro-9H-fluoren-4-yl)thiazol-2-yl)-2-(4-nitrophenyl)thiazolidin-4-one] had a melting point of 90 to 92 °C. Further, in series [1], the viability at 1 µg/mL turned out to be 98.1%, the viability at 10 µg/mL was 97.2%, the viability at 31.25 µg/mL turned out to be 89% and the viability at 62.5 µg/mL amounted to 84.7%. Further, in series [1], the viability at 125 µg/mL worked out at 81%, the viability at 250 µg/mL amounted to 79.6%, the viability at 500 µg/mL was determined as 77.5% and the IC50 is more than 500 µg/mL. Also, in series [2], the viability at 31.25 µg/mL is 82.5%, the viability at 62.5 µg/mL was found to be 81.9%, the viability at 125 µg/mL came out at 77% and the viability at 250 µg/mL amounted to 74.3%. For the same compound, in series [2], the viability at 500 µg/mL came to 67.8% and the IC50 is more than 500 µg/mL. For the same compound, in series [3], the viability at 1 µg/mL worked out at 95%, the viability at 10 µg/mL worked out at 89.8%, the viability at 31.25 µg/mL turned out to be 87% and the viability at 62.5 µg/mL turned out to be 83.8%. In series [3], the viability at 125 µg/mL was found to be 79.2%, the viability at 250 µg/mL is 75.4%, the viability at 500 µg/mL was found to be 65.5% and the viability at 1000 µg/mL was found to be 12.6%. The compound also had an IC50 in series [3] of 567 µg/mL (≈ 1050 µM).
`O=C1CSC(c2cccs2)N1c1nc(-c2cc(Cl)cc3c2-c2ccc(Cl)cc2C3)cs1` (stereo not drawn) [5k, 3-(4-(2,7-Dichloro-9H-fluoren-4-yl)thiazol-2-yl)-2-(thiophen-2-yl)thiazolidin-4-one] gave a melting point of 165 to 167 °C. Besides, in series [1], the viability at 1 µg/mL came out at 92.3%, the viability at 10 µg/mL turned out to be 85.8%, the viability at 31.25 µg/mL was determined as 68.7% and the viability at 62.5 µg/mL came out at 60.8%. Besides, in series [1], the viability at 125 µg/mL was 56.7%, the viability at 250 µg/mL came to 50.6%, the viability at 500 µg/mL was found to be 43% and half-maximal inhibition (IC50) was put at 330 µg/mL (≈ 658 µM). In series [2], the viability at 31.25 µg/mL was 80.8%, the viability at 62.5 µg/mL is 71.4%, the viability at 125 µg/mL was determined as 64.8% and the viability at 250 µg/mL was 51.4%. Also, in series [2], the viability at 500 µg/mL worked out at 41.9% and the IC50 stood at 288 µg/mL (≈ 574 µM). Also, in series [3], the viability at 1 µg/mL turned out to be 95.2%, the viability at 10 µg/mL came to 92.3%, the viability at 31.25 µg/mL turned out to be 85.9% and the viability at 62.5 µg/mL was 83.9%. Besides, in series [3], the viability at 125 µg/mL is 79.6%, the viability at 250 µg/mL is 76.9%, the viability at 500 µg/mL worked out at 60.9% and the viability at 1000 µg/mL stood at 22.6%. Moreover, the midpoint of inhibition in series [3], the IC50, lay at 613 µg/mL (≈ 1220 µM).
On to `O=C(O)c1ccc(C2C(Cl)C(=O)N2c2nc(-c3cc(Cl)cc4c3-c3ccc(Cl)cc3C4)cs2)cc1` (stereo not drawn) [6g, 4-(3-Chloro-1-(4-(2,7-dichloro-9H-fluoren-4-yl)thiazol-2-yl)-4-oxoazetidin-2-yl)benzoic acid], for which the melting point is 125 to 127 °C. In addition, in series [1], the viability at 1 µg/mL was 96.7%, the viability at 10 µg/mL was determined as 93.9%, the viability at 31.25 µg/mL was 91.2% and the viability at 62.5 µg/mL worked out at 82.9%. For the same compound, in series [1], the viability at 125 µg/mL turned out to be 71.1%, the viability at 250 µg/mL stood at 65.5%, the viability at 500 µg/mL is 55.6% and the IC50 was more than 500 µg/mL. Besides, in series [2], the viability at 31.25 µg/mL came to 73.9%, the viability at 62.5 µg/mL came to 42%, the viability at 125 µg/mL was found to be 37.4% and the viability at 250 µg/mL was found to be 35.7%. In addition, in series [2], the viability at 500 µg/mL is 30.6% and the midpoint of inhibition, the IC50, lay at 40 µg/mL (≈ 73.8 µM). Further, in series [3], the viability at 1 µg/mL came out at 94.5%, the viability at 10 µg/mL stood at 90.1%, the viability at 31.25 µg/mL worked out at 86.9% and the viability at 62.5 µg/mL worked out at 73.5%. Also, in series [3], the viability at 125 µg/mL was 68.9%, the viability at 250 µg/mL came out at 63.1%, the viability at 500 µg/mL turned out to be 18.4% and the viability at 1000 µg/mL stood at 14.4%. In series [3], this compound came in with an IC50 of 308 µg/mL (≈ 568 µM).
Regarding `CC(=O)O[C@H]1C(=O)[C@@]2(C)[C@H]([C@H](OC(=O)c3ccccc3)[C@]3(O)C[C@H](OC(=O)[C@H](O)[C@@H](NC(=O)c4ccccc4)c4ccccc4)C(C)=C1C3(C)C)[C@]1(OC(C)=O)CO[C@@H]1C[C@@H]2O` [Taxol, reference compound], the values for the IC50 in series [1], in series [2] and in series [3] were 40 µg/mL (≈ 46.8 µM), 41 µg/mL (≈ 48 µM) and 2.3 µg/mL (≈ 2.69 µM), respectively.

These data come from article PMC7315563, “Bioactive fluorenes. Part III: 2,7-dichloro-9H-fluorene-based thiazolidinone and azetidinone analogues as anticancer and antimicrobial against multidrug resistant strains agents” (BMC Chemistry, 2020).
